Measurements from ChEMBL document CHEMBL1138228, “N,N'-Bisbenzylidenebenzene-1,4-diamines and N,N'-Bisbenzylidenenaphthalene-1,4-diamines as Sirtuin Type 2 (SIRT2) Inhibitors” (J Med Chem, 2006).

Each compound was assayed against T1, NAD-dependent protein deacetylase sirtuin-2 (Homo sapiens) (UniProt Q8IXJ6) (assay: Inhibition of SIRT2 at 200 uM).
T1 sequence (whole entry): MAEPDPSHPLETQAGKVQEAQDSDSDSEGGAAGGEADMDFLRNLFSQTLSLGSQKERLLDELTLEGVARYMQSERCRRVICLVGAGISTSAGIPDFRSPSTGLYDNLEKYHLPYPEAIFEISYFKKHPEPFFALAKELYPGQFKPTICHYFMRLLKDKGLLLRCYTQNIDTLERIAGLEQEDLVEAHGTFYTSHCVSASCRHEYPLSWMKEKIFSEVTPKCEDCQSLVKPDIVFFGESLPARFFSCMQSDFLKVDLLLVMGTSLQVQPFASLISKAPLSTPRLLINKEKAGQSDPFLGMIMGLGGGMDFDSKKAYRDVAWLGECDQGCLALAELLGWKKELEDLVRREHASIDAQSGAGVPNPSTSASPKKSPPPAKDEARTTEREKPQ
An inhibition of 21% was found for c1ccc(CNc2ccc(NCc3ccccc3)cc2)cc1 in this work.
An inhibition of 8% was found for Oc1cccc(CNc2ccc(NCc3cccc(O)c3)cc2)c1 in this work.
An inhibition of 12% was found for Oc1cccc(/C=N/c2ccc(/N=C/c3cccc(O)c3)cc2)c1 in this work.
An inhibition of 35% was found for C(=N\c1ccc(/N=C/c2ccccc2)cc1)/c1ccccc1 in this work.
An inhibition of 64% was found for Oc1ccc(/C=N/c2ccc(/N=C/c3ccc(O)cc3)c3ccccc23)cc1 in this work.
An inhibition of 34% was found for COc1ccccc1/C=N/c1ccc(/N=C/c2ccccc2OC)c2ccccc12 in this work.
An inhibition of 14% was found for Oc1ccc(CNc2ccc(NCc3ccc(O)cc3)cc2)cc1 in this work.
An inhibition of 27% was found for Oc1ccccc1CNc1ccc(NCc2ccccc2O)cc1 in this work.
An inhibition of 20% was found for COc1cccc(/C=N/c2ccc(/N=C/c3cccc(OC)c3)cc2)c1 in this work.
An inhibition of 22% was found for Oc1ccc(/C=N/c2ccc(/N=C/c3ccc(O)cc3)cc2)cc1 in this work.
An inhibition of 20% was found for COc1cccc(/C=N/c2ccc(/N=C/c3cccc(OC)c3)c3ccccc23)c1 in this work.
An inhibition of 13% was found for Oc1ccc(/C=N/c2ccc(/N=C/c3ccc(O)c(O)c3)cc2)cc1O in this work.
An inhibition of 17% was found for COc1ccc(/C=N/c2ccc(/N=C/c3ccc(OC)cc3)c3ccccc23)cc1 in this work.
An inhibition of 38% was found for Oc1ccccc1/C=N/c1ccc(/N=C/c2ccccc2O)c2ccccc12 in this work.
An inhibition of 53% was found for Oc1cccc(/C=N/c2ccc(/N=C/c3cccc(O)c3)c3ccccc23)c1 in this work.
An inhibition of 13% was found for COc1ccccc1/C=N/c1ccc(/N=C/c2ccccc2OC)cc1 in this work.
An inhibition of 56% was found for Oc1ccccc1/C=N/c1ccc(/N=C/c2ccccc2O)cc1 in this work.
An inhibition of 18% was found for C(=N\c1ccc(/N=C/c2ccccc2)c2ccccc12)/c1ccccc1 in this work.

The compounds below were run against T2, NAD-dependent protein deacetylase sirtuin-2 (Homo sapiens, UniProt Q8IXJ6) (assay: Inhibition of SIRT2).
T2 sequence (Q8IXJ6 whole entry): T1 sequence (whole entry)
An IC50 of 137 µM was found for Oc1ccc(/C=N/c2ccc(/N=C/c3ccc(O)cc3)c3ccccc23)cc1 in this work.
An IC50 of 196 µM was found for Oc1cccc(/C=N/c2ccc(/N=C/c3cccc(O)c3)c3ccccc23)c1 in this work.
An IC50 of 58.4 µM was found for Oc1ccccc1/C=N/c1ccc(/N=C/c2ccccc2O)cc1 in this work.
